Patent publication US20250163057A1, “DCN-1 MODULATING COMPOUNDS AND METHODS OF USE THEREOF” (Cellarity, Inc., priority 2023, published 2025)
pIC50: −log10 of the molar value. Read-outs that look alike come from different tables or passages of the source.

Legend:
[1] = test system: Cullin-3 (CUL3) neddylation; test: AlphaLISA assay for Cullin-3 (CUL3) neddylation in TF 1 cells; format: cell-based; conditions: Homo sapiens, TF-1, 3 h, 3 hours treatment
How it was run: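 TF 1 cells in unsupplemented IMDM treated with compound concentrations for 3 h, then lysed. CUL3 neddylation detected by AlphaLISA (biotinylated anti-NEDD8, anti-CUL3 acceptor beads overnight, streptavidin donor beads 1 h); normalized to vehicle (0%) and 1 μM DI-1548 (100%), IC50 from Hill fits.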

[2] = molecular target: DCN1 (DCUND1) protein PONY domain (Homo sapiens (Human), UniProt Q96GG9); test: TR-FRET assay, DCN1 binding with FAM-labeled probe; conditions: for IC50: TR FRET IC50 1 hr (nM)
Chain of DCN1 (DCUND1) protein PONY domain (Q96GG9 60-248): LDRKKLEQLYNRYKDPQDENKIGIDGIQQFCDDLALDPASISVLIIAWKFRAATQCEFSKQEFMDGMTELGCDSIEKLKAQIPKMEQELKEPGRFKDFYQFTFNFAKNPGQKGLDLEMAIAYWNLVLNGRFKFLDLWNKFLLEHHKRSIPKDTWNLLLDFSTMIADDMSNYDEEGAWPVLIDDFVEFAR
How it was run: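 Tb-DCN1 PONY domain (E. coli, biotin/streptavidin-Tb); FAM-labelled non-covalent inhibitor probe; TritonX buffer, 200 mM NaCl; 5 nM DCN1 + 20 nM probe or 0.31 nM DCN1 + 900 nM total probe; 0.1% DMSO; TR-FRET read 1, 5, 24 hrs.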

[3] = molecular target: DCN1 protein (Homo sapiens (Human), UniProt Q96GG9); test: Intact Protein MS Analysis with the RapidFire-TOF System (covalent adduct formation); format: binding; conditions: MS Emax; 400 nM DCN1, 3 hours at room temperature
Chain of DCN1 protein (Q96GG9 whole entry): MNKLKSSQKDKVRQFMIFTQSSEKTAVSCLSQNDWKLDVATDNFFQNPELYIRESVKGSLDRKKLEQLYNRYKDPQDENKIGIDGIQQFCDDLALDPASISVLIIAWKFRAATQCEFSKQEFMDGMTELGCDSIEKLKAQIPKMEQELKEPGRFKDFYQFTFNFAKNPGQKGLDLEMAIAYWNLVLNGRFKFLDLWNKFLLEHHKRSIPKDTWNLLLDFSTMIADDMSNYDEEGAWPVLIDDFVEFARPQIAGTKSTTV
How it was run: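 Tag-cleaved human DCN1 (400 nM) expressed in E. coli, in 25 mM Tris-HCl, 200 mM NaCl, 1 mM DTT, was incubated with 11 compound concentrations for 3 h at room temperature and quenched with 0.2% formic acid. Intact-protein Q-TOF MS with deconvolution detected the compound adduct mass.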

[4] = 24 hr after treatment with compound, read-out: TR FRET IC50 24 hr
[5] = read-out: TR FRET IC50 1 hr, 1 hr after treatment with compound
[6] = 1 hr after treatment with compound

CCN1C(=O)[C@@H](NC(=O)c2cccc(C(F)(F)F)c2)[C@@H](c2ccc(F)cc2)c2c(C(=O)N(C)[C@@H](C#N)CCN3CCOCC3)nn(-c3ccccc3)c21 [Compound I-309]
pIC50 [1]: ≥ 7.00
pIC50 [2, 4]: ≥ 6.70
pIC50 [2, 5]: ≥ 6.70
% Adduct Formation [3]: + (MS Emax % adduct formation greater than or equal to 0.0 and less than or equal to 30.0)

CCN1C(=O)[C@@H](NC(=O)c2cccc(C(F)(F)F)c2)[C@@H](c2ccc(F)cc2)c2c(C(=O)N(C)[C@H](C#N)CCN(C)C3COC3)nn(-c3ccccc3)c21 [Compound I-310]
pIC50 [1]: ≥ 7.00
pIC50 [2, 4]: ≥ 6.70
pIC50 [2, 5]: ≥ 6.70
% Adduct Formation [3]: +++ (MS Emax % adduct formation greater than 80.0 and less than or equal to 100.0)

CCN1C(=O)[C@@H](NC(=O)c2cccc(C(F)(F)F)c2)[C@@H](c2ccc(F)cc2)c2c(C(=O)N(C)[C@H](C#N)CCN3CC4CC(C3)O4)nn(-c3ccccc3)c21 [Compound I-312]
pIC50 [1]: ≥ 7.00
pIC50 [2, 4]: ≥ 6.70
pIC50 [2, 5]: ≥ 6.70
% Adduct Formation [3]: +++ (MS Emax % adduct formation greater than 80.0 and less than or equal to 100.0)

CCN1C(=O)[C@@H](NC(=O)c2cccc(C(F)(F)F)c2)[C@@H](c2ccc(F)cc2)c2c(C(=O)N(C)[C@@H](C#N)CCN3CC4CC(C3)O4)nn(-c3ccccc3)c21 [Compound I-313]
pIC50 [1]: ≥ 7.00
pIC50 [2, 4]: ≥ 6.70
pIC50 [2, 5]: ≥ 6.70
% Adduct Formation [3]: ++ (MS Emax % adduct formation greater than 30.0 and less than or equal to 80.0)

CCN1C(=O)[C@@H](NC(=O)c2cccc(C(F)(F)F)c2)[C@@H](c2ccc(F)cc2)c2c(C(=O)N(C)[C@H](C#N)CCN3CCC34COC4)nn(-c3ccccc3)c21 [Compound I-314]
pIC50 [1]: ≥ 7.00
pIC50 [2, 4]: ≥ 6.70
pIC50 [2, 5]: ≥ 6.70
% Adduct Formation [3]: +++ (MS Emax % adduct formation greater than 80.0 and less than or equal to 100.0)

CCN1C(=O)[C@@H](NC(=O)c2cccc(C(F)(F)F)c2)[C@@H](c2ccc(F)cc2)c2c(C(=O)N(C)[C@@H](C#N)CCN3CCC34COC4)nn(-c3ccccc3)c21 [Compound I-315]
pIC50 [1]: ≥ 7.00
pIC50 [2, 4]: ≥ 6.70
pIC50 [2, 5]: ≥ 6.70
% Adduct Formation [3]: +++ (MS Emax % adduct formation greater than 80.0 and less than or equal to 100.0)

CCN1C(=O)[C@@H](NC(=O)c2cccc(C(F)(F)F)c2)[C@@H](c2ccc(F)cc2)c2c(C(=O)N(C)[C@H](C#N)CCN3CCN(C4COC4)CC3)nn(-c3ccccc3)c21 [Compound I-316]
pIC50 [1]: ≥ 7.00
pIC50 [2, 4]: ≥ 6.70
pIC50 [2, 5]: ≥ 6.70
% Adduct Formation [3]: +++ (MS Emax % adduct formation greater than 80.0 and less than or equal to 100.0)

CCN1C(=O)[C@@H](NC(=O)c2cccc(C(F)(F)F)c2)[C@@H](c2ccc(F)cc2)c2c(C(=O)N(C)[C@@H](C#N)CCN3CCN(C4COC4)CC3)nn(-c3ccccc3)c21 [Compound I-317]
pIC50 [1]: ≥ 7.00
pIC50 [2, 4]: ≥ 6.70
pIC50 [2, 5]: ≥ 6.70
% Adduct Formation [3]: +++ (MS Emax % adduct formation greater than 80.0 and less than or equal to 100.0)

CCN1C(=O)[C@@H](NC(=O)c2cccc(C(F)(F)F)c2)[C@@H](c2ccc(F)cc2)c2c(C(=O)N(C)[C@H](C#N)CCN3CC4CCC(C3)O4)nn(-c3ccccc3)c21 [Compound I-318]
pIC50 [1]: ≥ 7.00
pIC50 [2, 4]: ≥ 6.70
IC50 [2, 6]: 1000 to 3000 nM
% Adduct Formation [3]: +++ (MS Emax % adduct formation greater than 80.0 and less than or equal to 100.0)

CCN1C(=O)[C@@H](NC(=O)c2cccc(C(F)(F)F)c2)[C@@H](c2ccc(F)cc2)c2c(C(=O)N(CC#N)CCN3CCN(C4COC4)CC3)nn(-c3ccccc3)c21 [Compound I-323]
pIC50 [1]: ≥ 7.00
pIC50 [2, 4]: ≥ 6.70
pIC50 [2, 5]: ≥ 6.70
% Adduct Formation [3]: +++ (MS Emax % adduct formation greater than 80.0 and less than or equal to 100.0)

CCN1C(=O)[C@@H](NC(=O)c2cccc(C(F)(F)F)c2)[C@@H](c2ccc(F)cc2)c2c(C(=O)N3CCS(=O)(=O)CC3C#N)nn(-c3ccccc3)c21 (stereo partly drawn) [Compound I-325]
pIC50 [1]: ≥ 7.00
pIC50 [2, 4]: ≥ 6.70
pIC50 [2, 5]: ≥ 6.70
% Adduct Formation [3]: +++ (MS Emax % adduct formation greater than 80.0 and less than or equal to 100.0)

CCN1C(=O)[C@@H](NC(=O)c2cccc(C(F)(F)F)c2)[C@@H](C2CC2)c2c(C(=O)N3[C@H](C#N)C[C@H]4C[C@H]43)nn(-c3ccccc3)c21 [Compound I-326]
pIC50 [1]: ≥ 7.00
pIC50 [2, 4]: ≥ 6.70
pIC50 [2, 5]: ≥ 6.70
% Adduct Formation [3]: +++ (MS Emax % adduct formation greater than 80.0 and less than or equal to 100.0)

CCN1C(=O)[C@@H](NC(=O)c2cccc(C(F)(F)F)c2)[C@@H](C2CC2)c2c(C(=O)N3[C@H](C#N)C[C@H]4C[C@H]43)nn(C3CC3)c21 [Compound I-327]
pIC50 [1]: ≥ 7.00
pIC50 [2, 4]: ≥ 6.70
pIC50 [2, 5]: ≥ 6.70
% Adduct Formation [3]: +++ (MS Emax % adduct formation greater than 80.0 and less than or equal to 100.0)

CCCn1nc(C(=O)N2[C@H](C#N)C[C@H]3C[C@H]32)c2c1N(CC)C(=O)[C@@H](NC(=O)c1cccc(C(F)(F)F)c1)[C@H]2C1CC1 [Compound I-328]
pIC50 [1]: ≥ 7.00
pIC50 [2, 4]: ≥ 6.70
pIC50 [2, 5]: ≥ 6.70
% Adduct Formation [3]: +++ (MS Emax % adduct formation greater than 80.0 and less than or equal to 100.0)

CCN1C(=O)[C@@H](NC(=O)c2cccc(C(F)(F)F)c2)[C@@H](c2ccc(F)cc2)c2c(C(=O)N3[C@H](C#N)C[C@H]4C[C@H]43)nn(C3CCOCC3)c21 [Compound I-329]
pIC50 [1]: ≥ 7.00
pIC50 [2, 4]: ≥ 6.70
pIC50 [2, 5]: ≥ 6.70
% Adduct Formation [3]: +++ (MS Emax % adduct formation greater than 80.0 and less than or equal to 100.0)

CCN1C(=O)[C@@H](NC(=O)c2cccc(C(F)(F)F)c2)[C@@H](c2ccc(F)cc2)c2c(C(=O)N3[C@H](C#N)C[C@H]4C[C@H]43)nn(C3CC3)c21 [Compound I-330]
pIC50 [1]: ≥ 7.00
pIC50 [2, 4]: ≥ 6.70
pIC50 [2, 5]: ≥ 6.70
% Adduct Formation [3]: +++ (MS Emax % adduct formation greater than 80.0 and less than or equal to 100.0)

CCCn1nc(C(=O)N2[C@H](C#N)C[C@H]3C[C@H]32)c2c1N(CC)C(=O)[C@@H](NC(=O)c1cccc(C(F)(F)F)c1)[C@H]2c1ccc(F)cc1 [Compound I-331]
pIC50 [1]: ≥ 7.00
pIC50 [2, 4]: ≥ 6.70
pIC50 [2, 5]: ≥ 6.70
% Adduct Formation [3]: +++ (MS Emax % adduct formation greater than 80.0 and less than or equal to 100.0)

CCN1C(=O)[C@@H](NC(=O)c2cccc(C(F)(F)F)n2)[C@@H](c2ccc(F)cc2)c2c(C(=O)N3CCC[C@H]3C#N)nn(C3CCOCC3)c21 [Compound I-332]
pIC50 [1]: ≥ 7.00
pIC50 [2, 4]: ≥ 6.70
IC50 [2, 6]: 200 to 1000 nM
% Adduct Formation [3]: +++ (MS Emax % adduct formation greater than 80.0 and less than or equal to 100.0)

CCN1C(=O)[C@@H](NC(=O)c2cccc(C(F)(F)F)c2F)[C@@H](c2ccc(F)cc2)c2c(C(=O)N3CCC[C@H]3C#N)nn(C3CCOCC3)c21 [Compound I-333]
pIC50 [1]: ≥ 7.00
pIC50 [2, 4]: ≥ 6.70
IC50 [2, 6]: 200 to 1000 nM
% Adduct Formation [3]: +++ (MS Emax % adduct formation greater than 80.0 and less than or equal to 100.0)

CCN1C(=O)[C@@H](NC(=O)c2cccc(C(F)(F)F)c2)[C@@H](c2ccc(F)cc2)c2c(C(=O)N3CCC[C@H]3C#N)nn(-c3cccc(OCCCN(C)C4COC4)c3)c21 [Compound I-335]
pIC50 [1]: ≥ 7.00
pIC50 [2, 4]: ≥ 6.70
IC50 [2, 6]: 1000 to 3000 nM
% Adduct Formation [3]: +++ (MS Emax % adduct formation greater than 80.0 and less than or equal to 100.0)

CCN1C(=O)[C@@H](NC(=O)c2cccc(C(F)(F)F)c2)[C@@H](c2ccc(F)cc2)c2c(C(=O)N3CCC[C@H]3C#N)nn(-c3cccc(OCCCN4CCC5(CC4)COC5)c3)c21 [Compound I-336]
pIC50 [1]: ≥ 7.00
pIC50 [2, 4]: ≥ 6.70
pIC50 [2, 5]: ≥ 6.70
% Adduct Formation [3]: +++ (MS Emax % adduct formation greater than 80.0 and less than or equal to 100.0)

CCN1C(=O)[C@@H](NC(=O)c2cccc(C(F)(F)F)c2)[C@@H](c2ccc(F)cc2)c2c(C(=O)N3CCC[C@H]3C#N)nn(-c3cccc(OCCCN4CCN(C5COC5)CC4)c3)c21 [Compound I-337]
pIC50 [1]: ≥ 7.00
pIC50 [2, 4]: ≥ 6.70
pIC50 [2, 5]: ≥ 6.70
% Adduct Formation [3]: +++ (MS Emax % adduct formation greater than 80.0 and less than or equal to 100.0)

CCN1C(=O)[C@@H](NC(=O)c2cccc(C(F)(F)F)c2)[C@@H](c2ccc(F)cc2)c2c(C(=O)N3CCC[C@H]3C#N)nn(-c3cccc(OCCCN4CCOCC4)c3)c21 [Compound I-338]
pIC50 [1]: ≥ 7.00
pIC50 [2, 4]: ≥ 6.70
IC50 [2, 6]: 1000 to 3000 nM
% Adduct Formation [3]: +++ (MS Emax % adduct formation greater than 80.0 and less than or equal to 100.0)

CCN1C(=O)[C@@H](NC(=O)c2cccc(C(F)(F)F)c2)[C@@H](c2ccc(F)cc2)c2c(C(=O)N3CCC[C@H]3C#N)nn(-c3cccc(OCCN4CCOCC4)c3)c21 [Compound I-339]
pIC50 [1]: ≥ 7.00
pIC50 [2, 4]: ≥ 6.70
IC50 [2, 6]: 1000 to 3000 nM
% Adduct Formation [3]: +++ (MS Emax % adduct formation greater than 80.0 and less than or equal to 100.0)
